{"source": "paper PMC8698759", "about": "“Gold(I) Complexes Bearing Alkylated 1,3,5-Triaza-7-phosphaadamantane Ligands as Thermoresponsive Anticancer Agents in Human Colon Cells” (Biomedicines, 2021)", "key": {"Recombinant Human TrxR1": {"target": "T1, Recombinant Human TrxR1 (Homo sapiens, UniProt Q16881)", "T1 construct": "purchased Sigma-Aldrich SRP6081", "T1 sequence (Q16881 151-649 limits assumed)": "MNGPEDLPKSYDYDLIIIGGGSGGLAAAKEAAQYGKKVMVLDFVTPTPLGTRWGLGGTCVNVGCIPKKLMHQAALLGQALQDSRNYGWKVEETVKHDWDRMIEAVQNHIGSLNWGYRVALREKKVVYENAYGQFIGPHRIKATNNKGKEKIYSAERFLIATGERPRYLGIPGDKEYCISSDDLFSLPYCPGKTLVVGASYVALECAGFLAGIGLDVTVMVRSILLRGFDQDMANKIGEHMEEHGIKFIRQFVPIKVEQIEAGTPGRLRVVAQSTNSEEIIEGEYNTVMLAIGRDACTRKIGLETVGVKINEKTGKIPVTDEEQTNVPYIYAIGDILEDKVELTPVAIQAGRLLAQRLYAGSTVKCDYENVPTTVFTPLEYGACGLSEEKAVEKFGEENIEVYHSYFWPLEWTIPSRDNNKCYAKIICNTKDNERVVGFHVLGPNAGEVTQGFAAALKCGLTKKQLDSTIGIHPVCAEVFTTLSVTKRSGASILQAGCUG", "experiment": "Thioredoxin reductase 1 (TrxR1) activity assay", "type": "biochemical", "details": "auranofin 25 µM; 3a and 3b at IC50 concentrations", "experimental": "Recombinant Human TrxR1 (Sigma-Aldrich SRP6081, St. Louis, MO, USA) was incubated in a 96 well plate with different concentration of Au complex previously dissolved in 25 μL of PBS at pH 7.4. The cell solution was incubated in shake motion for 5 min at 37 °C. After incubation time, procedure in Thioredoxin Reductase Assay Kit (Sigma-Aldrich CS0170, St. Louis, MO, USA) was followed. Finally, reaction was started by adding 6 μL DNTB and absorbance at 405 nm was recorded every 30 s for 22 min as a measure of Thioredoxin Reductase Activity."}, "[1]": {"test_system": "caspase-3 in Caco-2 cells", "experiment": "Determination of active caspase-3 by flow cytometry", "type": "cell-based, human", "details": "Caco-2, 48 h; 3a 5.0 µM, 3b 10.2 µM", "experimental": "(§1) Caco-2 cells were seeded in 75 cm^2 flask at a density of 1 × 10^4 cells/cm^2 and, 24 h later, exposed to drug panel for 48 h. Then cells were collected and processed following instructions by Sánchez-de-Diego et al. Finally, 50 µL of every sample were incubated with 5 µL anti-active caspase-3 (BD Pharmigen, Clone C92-605) and 5 µL p53 antibody (Miltenyi, Clone REA609)."}, "Caco-2/TC7 cells": {"test_system": "Caco-2/TC7 cells", "experiment": "MTT cytotoxicity / antiproliferative assay on Caco-2/TC7 cells", "type": "cell-based, human", "experimental": "Human fibroblast cells were kindly provided by Dr. Julio Montoya (Unidad de Bioquímica, Facultad de Veterinaria, Universidad de Zaragoza, Spain). Caco-2 cells (passages 40–70) and fibroblasts (passages 10–30) were maintained in a humidified atmosphere of 5% CO2 at 37 °C. Cells were grown in Dulbecco’s Modified Eagles medium (DMEM) (Gibco Invitrogen, Paisley, UK) supplemented with 20% fetal bovine serum (FBS), 1% non-essential amino acids, 1% penicillin (1000 U/mL), 1% streptomycin (1000 μg/mL) and 1% amphotericin (250 U/mL). […] Caco-2 cells were sub-cultured on 25 cm^2 plastic flasks at a density of 1.2 × 10^4 cells/cm^2, while fibroblasts were sub-cultured on 75 cm^2 plastic flasks at a density of 1 × 10^4 cells/cm^2. Culture medium was replaced every 2 days.\nGold complex was diluted in dimethyl sulfoxide (DMSO) to a stock solution at 20 mM and then re-diluted to a working solution at 2.5 mM before diluting it in cell culture medium to treat cells at desired concentrations.\nThe influence of hyperthermia was studied by incubating cells at 40 °C for 1 h immediately after treating them with the gold complexes.\nFor cytotoxicity screening assays, Caco-2 cells were seeded in 96-well plates at a density of 4 × 10^3 cells/well. Culture medium was replaced with medium containing drug panel 24 h post-seeding and cells were incubated for 72 h. In fibroblasts, culture medium containing metal gold complexes was added 10 days post-seeding. Antiproliferative effect was measured with MTT assay as previously described by Mármol et al.. […] To determine the selectivity index (SI) the IC50 value in fibroblasts was divided by IC50 value in Caco-2, obtaining a ratio cancerous/normal cells toxicity."}, "[2]": {"experiment": "Distribution coefficient (logD7.4), shake-flask n-octanol/buffered water", "type": "physicochemical", "details": "n-octanol/phosphate buffered saline pH 7.4, shake-flask", "experimental": "The n-octanol-water coefficients of the phosphane derivatives were determined as previously reported using a shake-flask method. Briefly: Buffered-saline distilled water (100 mL, phosphate buffer [PO4^3−] = 10 mM, [NaCl] = 0.15 M, pH 7.4) and n-octanol (100 mL) were shaken together for 72 h to allow saturation of both phases. 1 mg of the complexes was dissolved in 5 mL of the aqueous phase and 5 mL of the organic phase were added, mixing for 10 min. The concentration of the complexes in the organic and aqueous phases were then determined using UV absorbance spectroscopy. LogD7.4 = log{[compound(organic phase)]/[compound(aqueous phase)]}.\nThe lipophilicity can be measured by the partition coefficient water/n-octanol, logD, by experimental procedures such as the shake flask method, which affords the distribution of the drug between an equal amount of n-octanol and water (or buffered aqueous solution)."}, "p53 in Caco-2 cells": {"test_system": "p53 in Caco-2 cells", "experiment": "Determination of p53 by flow cytometry", "type": "cell-based, human", "details": "Caco-2, 48 h, versus non-treated cells", "experimental": "as §1"}, "Caco-2 cells [3]": {"test_system": "Caco-2 cells", "experiment": "Propidium iodide staining of DNA content and cell cycle analysis", "type": "cell-based, human", "details": "3a 5.0 µM, 3b 10.2 µM; for cells in G0-G1 phase, 40 °C / cells in G2-M phase, 40 °C / cells in S phase, 40 °C: Caco-2, 1 h at 40 °C plus 47 h at 37 °C; for cell cycle progression: Caco-2, 48 h; for cells in G0-G1 phase, 37 °C / cells in G2-M phase, 37 °C / cells in S phase, 37 °C: Caco-2, 48 h at 37 °C", "experimental": "Caco-2 cells were seeded in 25 cm^2 flasks at a density of 1 × 10^4 cells/cm^2 and 24 h post-seeding, were exposed to drug panel for 48 h. Cells were fixed as described by Sánchez-de-Diego et al. before staining them with 50 μg/mL PI solution."}, "Caco-2 cells [4]": {"test_system": "Caco-2 cells", "experiment": "Intracellular ROS levels, dichlorofluorescein assay", "type": "cell-based, human", "details": "for intracellular ROS levels, 1 h and 3 h: Caco-2, treated for 1 h and 3 h at IC50 values; for intracellular ROS levels, 24 h: Caco-2, treated for 24 h with IC50 values", "experimental": "Caco-2 cells were seeded in 96-wells plate at a density of 4 × 10^3 cells/well and intracellular ROS levels were determined with the dichlorofluorescein assay. Cells were exposed to drug panel for 1, 3 and 24 h and then incubated with 20 µM 2′-7′-dichlorofluorescein diacetate (DCFH-DA) (Merck KGaA, Darmstadt, Germany) in DMEM. The generation of oxidised derivative DCF was monitored by measuring the increase of fluorescence for 1 h, at an emission wavelength of 520 nm and excitation of 485 nm, with a FLUOstar Omega (BMG Labtech, Ortenberg, Germany) multiplate reader. Results were expressed as percentage of fluorescence respect to control, considering fluorescence intensity as a reflection of intracellular ROS levels."}, "[5]": {"details": "37 °C values rounded, read-out: IC50 values in Caco-2"}, "[6]": {"details": "72 h, MTT, 37 °C, mean ± SE, read-out: IC50 Caco-2/TC7 37 °C"}, "[7]": {"details": "read-out: IC50 Caco-2/TC7 40 °C, 72 h, MTT, 1 h at 40 °C immediately after treatment (hyperthermia), mean ± SE"}}, "note": "Where two headings read alike, the source gives them in different places.", "data": [{"smiles": "FC(F)(F)C(F)(F)C(F)(F)C(F)(F)C(F)(F)C(F)(F)CC[N+]12CN3CN(C1)C[P+]([Au-][S]c1ccccn1)(C3)C2.O=S(=O)([O-])C(F)(F)F", "note": "[Complex 3b, [Au(C5H5NS)(PTA-CH2CH2(CF2)5CF3)](TfO)]", "values": [{"measurement": "TrxR1 activity related to control", "setting": "Recombinant Human TrxR1", "result": "Inhibitory effect"}, {"measurement": "caspase-3 activation (cells with active caspase-3)", "setting": "[1]", "result": "could induce caspase-3 activation"}, {"measurement": "IC50", "setting": "Caco-2/TC7 cells; [5]", "result": 5.1, "unit": "µM"}, {"measurement": "IC50", "setting": "Caco-2/TC7 cells; [6]", "result": "5.11 ± 1.25", "unit": "µM"}, {"measurement": "IC50", "setting": "Caco-2/TC7 cells; [7]", "result": "4.26 ± 0.34", "unit": "µM"}, {"measurement": "logD7.4", "setting": "[2]", "result": 0.44}, {"measurement": "p53 accumulation", "setting": "p53 in Caco-2 cells", "result": "could induce p53 accumulation"}, {"measurement": "cells in G0-G1 phase, 40 °C", "setting": "Caco-2 cells [3]", "result": 48.1, "unit": "%"}, {"measurement": "cells in G2-M phase, 40 °C", "setting": "Caco-2 cells [3]", "result": 17.2, "unit": "%"}, {"measurement": "cells in S phase, 40 °C", "setting": "Caco-2 cells [3]", "result": 34.7, "unit": "%"}, {"measurement": "cell cycle progression", "setting": "Caco-2 cells [3]", "result": "increasing amount of cells in G0-G1 phase"}, {"measurement": "cells in G0-G1 phase, 37 °C", "setting": "Caco-2 cells [3]", "result": 41.4, "unit": "%"}, {"measurement": "cells in G2-M phase, 37 °C", "setting": "Caco-2 cells [3]", "result": 12.5, "unit": "%"}, {"measurement": "cells in S phase, 37 °C", "setting": "Caco-2 cells [3]", "result": 46.1, "unit": "%"}, {"measurement": "intracellular ROS levels, 1 h and 3 h", "setting": "Caco-2 cells [4]", "result": "did not bring significant changes"}, {"measurement": "intracellular ROS levels, 24 h", "setting": "Caco-2 cells [4]", "result": "significant increase"}]}, {"smiles": "CCCCCCCC[N+]12CN3CN(C1)C[P+]([Au-][S]c1ccccn1)(C3)C2.[I-]", "note": "[Complex 3a, [Au(C5H5NS)(PTA-CH2(CH2)6CH3)]I]", "values": [{"measurement": "TrxR1 activity related to control", "setting": "Recombinant Human TrxR1", "result": "Inhibitory effect"}, {"measurement": "caspase-3 activation (cells with active caspase-3)", "setting": "[1]", "result": "could induce caspase-3 activation"}, {"measurement": "IC50", "setting": "Caco-2/TC7 cells; [5]", "result": 2.5, "unit": "µM"}, {"measurement": "IC50", "setting": "Caco-2/TC7 cells; [6]", "result": "2.49 ± 0.31", "unit": "µM"}, {"measurement": "IC50", "setting": "Caco-2/TC7 cells; [7]", "result": "2.05 ± 0.32", "unit": "µM"}, {"measurement": "logD7.4", "setting": "[2]", "result": 0.35}, {"measurement": "p53 accumulation", "setting": "p53 in Caco-2 cells", "result": "could induce p53 accumulation"}, {"measurement": "cells in G0-G1 phase, 40 °C", "setting": "Caco-2 cells [3]", "result": 63.7, "unit": "%"}, {"measurement": "cells in G2-M phase, 40 °C", "setting": "Caco-2 cells [3]", "result": 27.78, "unit": "%"}, {"measurement": "cells in S phase, 40 °C", "setting": "Caco-2 cells [3]", "result": 8.56, "unit": "%"}, {"measurement": "cell cycle progression", "setting": "Caco-2 cells [3]", "result": "increasing amount of cells in G0-G1 phase"}, {"measurement": "cells in G0-G1 phase, 37 °C", "setting": "Caco-2 cells [3]", "result": 43.3, "unit": "%"}, {"measurement": "cells in G2-M phase, 37 °C", "setting": "Caco-2 cells [3]", "result": 14.4, "unit": "%"}, {"measurement": "cells in S phase, 37 °C", "setting": "Caco-2 cells [3]", "result": 42.4, "unit": "%"}, {"measurement": "intracellular ROS levels, 1 h and 3 h", "setting": "Caco-2 cells [4]", "result": "did not bring significant changes"}, {"measurement": "intracellular ROS levels, 24 h", "setting": "Caco-2 cells [4]", "result": "significant increase"}]}]}
